{"source": "paper PMC8869984", "about": "“Multifunctional Silver(I) Complexes with Metronidazole Drug Reveal Antimicrobial Properties and Antitumor Activity against Human Hepatoma and Colorectal Adenocarcinoma Cells” (Cancers, 2022)", "system": "Balb/c 3T3 cells", "assay": "cytotoxicity, MTT, NRU, TPC and LDH assays taken together, 72 h", "format": "cell-based, murine", "conditions": "non-cancer Balb/c 3T3 cells, range over MTT, TPC, LDH", "method": "The human hepatoma (HepG2) and colorectal adenocarcinoma (Caco-2) cells were purchased from the American Type Culture Collection: ATCC HB-8065 and ATCC HTB-37, respectively. These cells were cultured in Minimum Essential Medium Eagle (MEME) (ATCC). The murine fibroblasts cell line (Balb/c 3T3 clone A31) (gift from the Department of Swine Diseases of the National Veterinary Research Institute in Pulawy) was cultured in Dulbecco’s Modified Eagle Medium (DMEM) (ATCC). The media were supplemented with 10% BCS (Balb/c 3T3), 10% FBS (HepG2), 20% FBS (Caco-2), 1% L-glutamine, 1% antibiotic solution. […] Cytotoxicity was assessed after 72 h of exposure of the cells to compounds. […]\nThe metabolic activity of living cells was assessed by the measurement of the activity of dehydrogenases. […] The plate was shaken for 15 min at room temperature and transferred to a microplate reader Synergy HTX multi-mode reader (BioTek® Instruments Inc., Winooski, VT, USA) to measure the absorbance at 570 nm, using a blank as a reference. Cytotoxicity was expressed as a percentage of the negative control.\nThis method is based on staining living cells with neutral red, which readily diffuses through the plasma membrane and accumulates in lysosomes. […] Cytotoxicity was expressed as a percentage of the negative control. […]"}
{"compound": "O=S(=O)([O-])[O-].[Ag+].[Ag+]", "note": "[Ag2SO4, silver sulfate]", "values": [{"measurement": "IC50", "value": "1920 to 2570", "unit": "nM"}]}
